Structures are written as SMILES. Where only a bound is given, the exact number is not on record here.

We go through 28 compounds from US8158621B2, “Methods of treating or preventing autoimmune diseases with 2,4-pyrimidinediamine compounds” (Rigel Pharmaceuticals, Inc., priority 2002, dated 2012).

For one experiment, the system named is Human Jurkat T-cells (clone N). The experiment can be described thus: Jurkat T-cell activation (anti-TCR, CD69 upregulation). Type of experiment: cell-based.
Details: not given
Summed up:
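Jurkat cells in RPMI + 5% FBS preincubated with compound 1 h at 37 °C, then stimulated with anti-TCR C305 at 500 ng/ml for 20 h. CD69 surface expression stained with anti-CD69-APC and read by flow cytometry; IC50 versus solvent-only control.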
In the case of `COC(=O)c1cc2cc(Nc3nc(Nc4ccc(OCc5nc(-c6ccccc6)no5)cc4)ncc3F)ccc2o1` [Compound R935137], the IC50 (usually the midpoint of a concentration-inhibition curve) is 24.1 µM. For `Fc1cnc(Nc2ccc3cn[nH]c3c2)nc1Nc1ccc(OC(F)(F)F)c(Cl)c1` [Compound R935368], the IC50 was over 10 µM. On the same count and under the same terms, with `CON=C(N)COc1ccc(Nc2ncc(F)c(Nc3cccc(O)c3)n2)cc1` [Compound R945167] the figure was 5.07 µM; with `CCOC(=O)CNc1cccc(Nc2ncc(F)c(Nc3cccc(O)c3)n2)c1` [Compound R950215], 5.01 µM. Same read-out and setting: with `COC(=O)COc1ccc(Nc2nc(Nc3ccc(OCC#N)cc3)ncc2F)cc1` [Compound R945062] the figure was over 10 µM; with `Fc1cnc(Nc2ccc3c(c2)OCCO3)nc1Nc1ccc2cn[nH]c2c1` [Compound R935261], 2.18 µM; with `CS(=O)(=O)Nc1ccc(Nc2ncc(F)c(Nc3ccc(NS(C)(=O)=O)cc3)n2)cc1` [Compound R950083], over 10 µM. The same measure, in the same setting: under `CCOC(=O)COc1ccc(Nc2ncc(-c3nn[nH]n3)c(Nc3ccc(OCC(=O)OCC)cc3)n2)cc1` [Compound R925810] stands 21.3 µM; under `CCOc1ccc(Nc2ncc([N+](=O)[O-])c(Nc3ccc(OCC)cc3)n2)cc1` [Compound R940090], over 10 µM. `CCOC(=O)c1cnc(Nc2ccc3c(c2)NC(=O)CO3)nc1Nc1ccc2c(c1)NC(=O)CO2` [Compound R926325] displayed an IC50 of over 10 µM. The same measure, in the same setting: with `CSc1nc(Nc2cccc(O)c2)nc(Nc2cccc(O)c2)c1Cl` [Compound R926595] the figure was over 10 µM; with `COC(=O)COc1ccc(Nc2ncc(F)c(Nc3ccc(OCC(=O)OC)cc3)n2)cc1` [Compound R926240], over 10 µM. `CCOC(=O)CNC(=O)Nc1c(Nc2ccc(OCC(=O)OCC)cc2)nc(Nc2ccc(OCC(=O)OCC)cc2)nc1C(=O)OCC` [Compound R926587]: the IC50 is over 10 µM. Still for that read-out and setting: under `O=C(COc1cccc(Nc2ncc(F)c(Nc3ccc4c(c3)OCCO4)n2)c1)NC1CC1` [Compound R926848] stands 1.72 µM; under `COC(=O)COc1ccc(Nc2ncc(F)c(Nc3ccc4c(cnn4C)c3)n2)cc1` [Compound R935209], over 10 µM. The same measure, in the same setting: under `CNC(=O)COc1cccc(Nc2ncc(F)c(Nc3ccc(OC(C)C)cc3)n2)c1` [Compound R926730] stands 1.84 µM; under `CCOC(=O)CSc1ccc(Nc2ncc(F)c(Nc3ccc4c(c3)OCCO4)n2)cn1` [Compound R926727], over 10 µM; under `COc1ccc(-c2ccccc2)cc1Nc1ncc(F)c(Nc2cc(-c3ccccc3)ccc2OC)n1` [Compound R926400], over 10 µM. The same measure, in the same setting: under `Cc1noc(COc2ccc(Nc3nc(Nc4cccc(O)c4)ncc3F)cc2)n1` [Compound R935147] stands 1.98 µM. As for `CC(C)Oc1ccc(Nc2nc(Nc3ccc4cnn(CCCO)c4c3)ncc2F)cc1` [Compound R935290], the midpoint of inhibition, the IC50, lay at 3.43 µM. Still for that read-out and setting: under `CNC(=O)Cn1ncc2ccc(Nc3nc(Nc4ccc5c(c4)OCCO5)ncc3F)cc21` [Compound R935225] stands 7.42 µM.

The same experiment, now with this note: Homo sapiens.
`Cc1ccc(Nc2ccnc(Nc3ccc(C)c([N+](=O)[O-])c3)n2)cc1[N+](=O)[O-]` [Compound R950153] gave an IC50 of over 10 µM.

Still in this experiment, the particulars now being: Homo sapiens, Jurkat.
With `Oc1cccc(Nc2cc(Nc3cccc(O)c3)nc(Nc3cccc(O)c3)n2)c1` [Compound R926409], the IC50 turned out to be 3.54 µM. In other words, the single-digit micromolar range.

Consider `C=CCNc1ncc(Br)c(Nc2cccc(O)c2)n1` [Compound R925822], for which the IC50 is over 10 µM. Same read-out and setting: under `Cc1cc(Nc2ncc(F)c(Nc3cc(C)c(O)cc3C)n2)c(C)cc1O` [Compound R926623] stands 10 µM. Same read-out and setting: with `COC(=O)C1Cc2cc(N(c3ccc(C(C)(C)C)cc3)c3ncc(F)c(N)n3)ccc2O1` (stereo not shown) [Compound R926719] the figure was over 10 µM; with `Fc1cnc(Nc2ccc(OCc3ccccc3)c(C(F)(F)F)c2)nc1Nc1ccc(OCc2ccccc2)c(C(F)(F)F)c1` [Compound R950090], over 10 µM.

For `Oc1cccc(Nc2ncc(F)c(NCc3csc4ccccc34)n2)c1` [Compound R945146], the IC50 was over 10 µM.
